This note sets out measurements from patent publication US20250345391A1, “COMPOSITIONS AND METHODS FOR THE TREATMENT OF SEPSIS” (Children's Hospital Medical Center, priority 2022, published 2025).

Assay [1] concerns polymicrobial sepsis by cecal ligation and puncture (CLP). Description: Long-term studies of severity of sepsis (survival, severity score, body weight) up to 7 days after CLP. The format is in vivo, Male C57BL/6 mice. From the text:
The investigation conformed to the National Institutes of Health Guide for the Care and Use of Laboratory Animals (Eighth Edition, 2011) and was approved by the Institutional Animal Care and Use Committee of the Cincinnati Children's Hospital Medical Center. Male C57BL/6 mice were obtained from Charles River Laboratories International, Inc. (Wilmington, MA). Mice were used at 3-5 months of age to mimic the equivalent for human ranges from 20-25 years (29). Male mice only were chosen for the experimentation to avoid interference from female hormonal fluctuations in sepsis responses during the estrous cycle. Mice were housed in pathogen-free conditions under a 10-h light/14-h dark cycle with free access to food and water. Mice were anesthetized with 2.0% isoflurane in 50% oxygen and polymicrobial sepsis was induced by cecal ligation and puncture (CLP) (30). After a midline laparotomy, the cecum was exteriorized, ligated and punctured twice with a 23-G needle. The cecum was then returned into the peritoneal cavity and the abdominal incision was closed. After the procedure, mice were randomly assigned to three treatment groups: a vehicle-treated group received distilled water (200 μl/mouse) intraperitoneally (i.p.); a 100 μg colivelin-treated group received the colivelin at 100 μg/kg i.p., and a 200 μg colivelin-treated group received the colivelin at 200 μg/kg i.p. at 1 h after CLP. The intraperitoneal injection was chosen to allow for a rapid uptake and bioavailability of the peptide. All groups of mice also received fluid resuscitation (35 ml/kg normal saline solution subcutaneously) immediately after, at 3 h and 12 h after the CLP procedure. To minimize pain at the surgical incision site, lidocaine hydrochloride (1%, 4 mg/kg total dose) was applied locally immediately after the procedure. […] Mice were then sacrificed at 0, 6 and 18 h after CLP. Blood, lungs, kidneys, liver, and thoracic aortas were collected for biochemical assays.
In a separate study, another cohort of mice was subjected to the CLP procedure and was used for assessing health and moribundity conditions, and survival rate up to 7 days. Mice were divided into two treatment groups in a blind and random fashion: a vehicle-treated group received distilled water (200 μl/mouse), and a colivelin-treated group received colivelin (100 μg/kg subcutaneously) at 1 h, 3 h and 24 h after the CLP procedure. Twelve animals were included for each group. One animal was sacrificed because of unintentional extensive damage in the small intestine during surgical procedure and was excluded from the study. The subcutaneous injection was chosen to avoid further stress in the peritoneum since the animals also received intraperitoneal treatment of antibiotics. To mimic the clinical management of antimicrobial coverage, all mice received ceftriaxone (25 mg/kg) and metronidazole (12.5 mg/kg) intraperitoneally every 12 h after CLP for three days. To minimize pain, buprenorphine (0.05 mg/kg) was administered subcutaneously at 1 h after surgery and every 12 h for three days after surgery. All groups of mice also received fluid resuscitation (35 ml/kg normal saline with 5% dextrose subcutaneously) every 24 h for all the duration of the experimental period. Although some spontaneous death occurred given the acute severity of the disease, spontaneous death was not considered as endpoint for this study for ethical reasons. […]

Assay [2] concerns Myeloperoxidase (MPO) activity in lung, kidneys and liver tissue. As to the kind of experiment: Myeloperoxidase activity (neutrophil infiltration) in organs after CLP sepsis. The format is in vivo, Male C57BL/6 mice. To be noted: 6 h after CLP; colivelin 100 or 200 μg/kg i.p. at 1 h after CLP; vs vehicle; dose-independent. From the text:
The investigation conformed to the National Institutes of Health Guide for the Care and Use of Laboratory Animals (Eighth Edition, 2011) and was approved by the Institutional Animal Care and Use Committee of the Cincinnati Children's Hospital Medical Center. Male C57BL/6 mice were obtained from Charles River Laboratories International, Inc. (Wilmington, MA). Mice were used at 3-5 months of age to mimic the equivalent for human ranges from 20-25 years (29). Male mice only were chosen for the experimentation to avoid interference from female hormonal fluctuations in sepsis responses during the estrous cycle. Mice were housed in pathogen-free conditions under a 10-h light/14-h dark cycle with free access to food and water. Mice were anesthetized with 2.0% isoflurane in 50% oxygen and polymicrobial sepsis was induced by cecal ligation and puncture (CLP) (30). After a midline laparotomy, the cecum was exteriorized, ligated and punctured twice with a 23-G needle. The cecum was then returned into the peritoneal cavity and the abdominal incision was closed. After the procedure, mice were randomly assigned to three treatment groups: a vehicle-treated group received distilled water (200 μl/mouse) intraperitoneally (i.p.); a 100 μg colivelin-treated group received the colivelin at 100 μg/kg i.p., and a 200 μg colivelin-treated group received the colivelin at 200 μg/kg i.p. at 1 h after CLP. The intraperitoneal injection was chosen to allow for a rapid uptake and bioavailability of the peptide. All groups of mice also received fluid resuscitation (35 ml/kg normal saline solution subcutaneously) immediately after, at 3 h and 12 h after the CLP procedure. […] Myeloperoxidase (MPO) activity was measured as an indicator of neutrophil infiltration in lung, kidneys and liver tissue. […] The rate of change in absorbance was measured by spectrophotometry at 650 nm. MPO activity was defined as the quantity of enzyme degrading 1 μmol of hydrogen peroxide/min at 37° C. and expressed in units per 100 mg weight of tissue.

With Colivelin (SALLRSIPAPAGASRLLLLTGEIDLP), the “Health of survivor mice (severity score) at 6 and 7 days” value in assay [1] (6 and 7 days after CLP, survivor mice, colivelin 100 μg/kg s.c., vs survivor vehicle-treated mice) is reported as “significantly healthier”. For the same substance, the “Mice survived at 7 days” value in assay [1] (7 days after CLP, colivelin 100 μg/kg s.c. at 1 h, 3 h and 24 h, with antibiotics and fluids, vehicle 6 out of 12) is 8 out of 11. The substance further came in with a Survival rate in assay [1] (7 days after CLP, colivelin 100 μg/kg s.c. at 1 h, 3 h and 24 h, with antibiotics and fluids, vehicle 50%, not significant) of 72.6%. The “Body weight, later time points” value in assay [1] (later than two days, up to 7 days after CLP, colivelin 100 μg/kg s.c., vs vehicle) was “vehicle-treated mice maintained a significant lower weight than colivelin-treated mice”. The “Severity of signs of sepsis (severity score), all the observation period” value in assay [1] (up to 7 days after CLP, colivelin 100 μg/kg s.c. at 1 h, 3 h and 24 h, with antibiotics and fluids, vs vehicle) was “less severe signs of sepsis”. Besides, in assay [2], the “MPO activity in kidneys” value is on record as “significantly decreased”, the “MPO activity in liver” value was “significantly decreased” and the “MPO activity in lungs” value was “significantly decreased”.
